Reference: patent US10913752B2, “Bivalent bromodomain inhibitors and uses thereof” (Dana-Farber Cancer Institute, Inc., priority 2015, dated 2021)
“Also recorded” adds a separate entry of the source.

Tests used:
NMC797 and MV4; 11 cells = assay: Cellular assays, cell lines not told apart (NMC797 and MV4;11); assay type: cell-based, human
Excerpt: Analysis of Cell Viability by ATPLite

BRD4(1) [1] = target: T1, BRD4(1) (Homo sapiens, UniProt O60885); assay: BRD4(1) AlphaScreen (competition with biotinylated-JQ1); assay type: binding; design: human BRD4 covering residues 44-168 (His-BRD4(1)) or 333-460 (His-BRD4(2)); made in house; host or cells: E. coli BL21 (DE3); settings: for biochemical activity (in words): biochemical assay, compared with JQ1
Protocol: BRD4(1) and BRDT(1) AlphaScreen™
Assays were performed with minimal modifications from the manufacturer's protocol (PerkinElmer, USA). All reagents were diluted in AlphaScreen™ buffer (50 mM HEPES, 150 mM NaCl, 0.1% w/v BSA, 0.01% w/v Tween20, pH 7.5) and allowed to equilibrate to room temperature prior to addition to plates. After addition of Alpha beads to master solutions all subsequent steps were performed under low light conditions. […] Plates were spun down at 150×g, 100 nL of compound in DMSO from stock plates were added by pin transfer using a Janus Workstation (PerkinElmer). The streptavidin-coated donor beads (10 μg/ml final) were added as with previous in a 2×, 10 μL volume. Following this addition, plates were sealed with foil to prevent light exposure and evaporation. The plates were spun down again at 150×g.

[2] = Mouse pharmacokinetics (cassette and single PK); assay type: in vivo, CD1 mice; settings: mice
Protocol: FIGS. 9a-9b. Cassette PK properties of bivalent inhibitors. FIGS. 9a and 9b show PK parameters of mice 5-in-1 cassette PK. Five compounds (1 mg/kg) were intravenously administered to CD1 mice (n=3).
FIGS. 10a-10b. Individual PK properties of bivalent inhibitors. […] (6S+2S)-PEG0 (50 mg/kg) was intraperitoneally administered to CD1 mice (n=3). […] (6S+6S)-PEG7 (50 mg/kg) was intraperitoneally administered to CD1 mice (n=3).

CBP = target: T2, CBP (Homo sapiens, UniProt Q92793); assay: BROMOscan, CBP; assay type: binding
T2 construct: purchased DiscoveRx (BROMOscan)
Excerpt: (§1) To further profile bivalent inhibitors, fluorescent polarization (FP) and phage-based, multiplexed bromodomain displacement assays (BROMOscan™, DiscoveRx) were utilized.

EP300 = target: T3, EP300 (Homo sapiens, UniProt Q09472); assay: BROMOscan, EP300; assay type: binding
T3 construct: purchased DiscoveRx (BROMOscan)
Excerpt: as §1

WDR9(2) = target: T4, WDR9(2) (Homo sapiens, UniProt Q9NSI6); assay: BROMOscan, WDR9(2); assay type: binding
T4 construct: purchased DiscoveRx (BROMOscan)
Excerpt: as §1

MYC = assay: Immunoblot for MYC in MV4;11 cells; assay type: cell-based, human
Protocol: (§2) Cells were lysed with RIPA buffer supplemented with protease inhibitor cocktail (Roche) and 0.1% benzonase (Novagen) on ice for 20 minutes. The lysates were spun at 20,000×g for 15 minutes at 4° C. and protein concentration was determined by a BCA assay (Pierce). The following antibodies were used in this study: BRD4 (Bethyl labs), c-MYC and actin (both Santa Cruz), HEXIM1, PARP, cleaved caspase 3 (all Cell Signaling Technology). Blots were imaged using fluorescence-labeled secondary antibodies (LI-COR) on the OdysseyCLxImager (LI-COR).

HEXIM1 = assay: Immunoblot for HEXIM1 in MV4;11 cells; assay type: cell-based, human
Protocol: as §2

BRD4 = target: T5, BRD4 (Homo sapiens, UniProt O60885); assay: Immunoblot for BRD4 protein stability (degradation); assay type: cell-based; settings: immunoblots following compound treatment
T5 construct: endogenous in cells; host or cells: MV4;11
Protocol: as §2

BRD4(2) = BRD4(2) (Homo sapiens, UniProt O60885); assay: BROMOscan, BRD4(2)
BRD4(full) = BRD4(full) (Homo sapiens, UniProt O60885); assay: BROMOscan, full length protein
BRD4(1,2) = BRD4(1,2) (Homo sapiens, UniProt O60885); assay: BROMOscan, tandem bromodomain construct
BRD4(1) [3] = target: T1, BRD4(1); assay: BROMOscan phage-based bromodomain displacement, BRD4(1)
[4] = test system: NMC797 cells (BRD4-rearranged NUT midline carcinoma); assay: cells; settings: Homo sapiens, NMC-797, 72 h, read-out: IC50, proliferation
Protocol: Cells were cultured at 37° C. with 5% CO2 in either DMEM (NMC797) or RPMI1640 (MV4; 11) supplemented with 10% FBS (Sigma), 100 U/mL penicillin, 100 μg/mL streptomycin, and 2 mM glutamine (Gibco). Cells tested negative for mycoplasma using the MycoAlert™ kit (Lonza).
Cells were plated at 1000 cells/well in 50 μL/well of media in 384 well white culture plates (Thermo). NMC797 cells were allowed to adhere overnight before adding 100 μL of compound in DMSO from compound stock plates using a Janus Workstation pin tool (PerkinElmer, USA). […] Cell viability was read out using the ATPlite kit (PerkinElmer). Plates were brought to room temperature prior to reagent addition. Lyophilized powder was resuspended in lysis buffer and diluted 1:2 with DI water.

neurokinin NK2 receptor = target: T6, neurokinin NK2 receptor (Homo sapiens, UniProt P21452); assay: Receptor profiling, [Nleu-10]-NKA radioligand binding; settings: 1 μM
T6 construct: purchased CEREP (Eurofins, Paris, France), ExpresSProfile
Excerpt: Receptor Profiling Studies

wild-type BRD4(1,2) = assay: Size-exclusion chromatography, wild-type tandem construct; settings: half an equivalence of MT1
BRD4(1,2^MUT) (N433A) = assay: Size-exclusion chromatography, second bromodomain mutant; settings: half an equivalence of MT1
BRD4(1^MUT,2) (N140A) = assay: Size-exclusion chromatography, first bromodomain mutant; settings: half an equivalence of MT1
BRD2, 3 and 4 = assay: Cellular thermal shift assay (CETSA); assay type: cell-based, human; settings: MV411 cells
Protocol: Cellular Thermal Shift Assay (CETSA)
Compound or DMSO was incubated with 4×10^6 MV411 cells for 1 hr at 37° C. Cells were put on ice and washed with PBS and transferred to PCR tubes. Supernatant was aspirated to leave ˜5 μl in each tube and then cells were heat shocked in a thermocycler at 48.5° C. for 3 min to denature proteins. Cells were then allowed to cool at RT for 3 min and then resuspended in 35 μl lysis buffer (50 mM Tris-HCl pH 7.5, 5% glycerol, 100 mM NaCl, 1.5 mM MgCl, 0.2% NP-40+protease inhibitor cocktail (Halt)) and freeze-thawed 3 times with liquid nitrogen to lyse cells. Lysates were then spun at 20,000×g for 20 min to clarify and pellet aggregated protein. Supernatant was boiled with LDS and split into three samples for immunoblotting. Bands were quantified using Image Studio™ software and plotted using GraphPad PRISM v6 as triplicate means±SEM.

MV4; 11 cells = assay: Immunoblot for caspase-3 and PARP cleavage in MV4;11 cells; assay type: cell-based, human; settings: 100 nM
Protocol: as §2

[5] = test system: MV4; 11 human leukemia cells (mCherry+, Luciferase+); assay: Disseminated leukemia xenograft, second (survival) study; assay type: in vivo, mice (NSG); settings: 44.2 μmol/kg
Excerpt: A drug holiday was given for 2 days (day 29-30), Treatment resumed for 5 more days (31-35) and then ended. Mice were monitored and sacrificed when hind-limb paralysis was evident or body weight dropped by 15%.

[6] = test system: 55 ligand receptors, ion channels, and transport proteins; assay: Receptor profiling (ExpresSProfile, CEREP); settings: 1 μM, more than 50 tested
[7] = test system: MV4; 11 human leukemia cells (mCherry+, Luciferase+); assay: Disseminated leukemia xenograft, first study; design: mCherry+ leukemic burden in bone marrow by FACS: dose or concentration left out as unconfirmed

T2 sequence (Q92793 1085-1192 limits assumed): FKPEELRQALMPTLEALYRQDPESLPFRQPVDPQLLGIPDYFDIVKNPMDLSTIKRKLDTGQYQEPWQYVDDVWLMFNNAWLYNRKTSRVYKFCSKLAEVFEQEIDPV
T3 sequence (Q09472 1049-1156 limits assumed): as the sequence (Q92793 1085-1192 limits assumed) above, with N47S, V73I, F93Y, A98S counted along it
T6 sequence (P21452 whole entry): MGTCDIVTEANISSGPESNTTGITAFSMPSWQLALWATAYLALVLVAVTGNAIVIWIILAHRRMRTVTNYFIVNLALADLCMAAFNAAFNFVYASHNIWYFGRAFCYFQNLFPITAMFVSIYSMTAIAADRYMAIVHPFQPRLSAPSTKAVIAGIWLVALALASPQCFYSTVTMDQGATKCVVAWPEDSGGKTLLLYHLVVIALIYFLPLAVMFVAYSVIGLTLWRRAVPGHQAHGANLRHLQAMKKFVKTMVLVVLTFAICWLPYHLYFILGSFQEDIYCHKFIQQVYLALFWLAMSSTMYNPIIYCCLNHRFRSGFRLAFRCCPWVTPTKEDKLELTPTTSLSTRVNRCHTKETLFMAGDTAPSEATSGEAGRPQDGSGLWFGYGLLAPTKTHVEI
T4 sequence (Q9NSI6 1313-1418 limits assumed): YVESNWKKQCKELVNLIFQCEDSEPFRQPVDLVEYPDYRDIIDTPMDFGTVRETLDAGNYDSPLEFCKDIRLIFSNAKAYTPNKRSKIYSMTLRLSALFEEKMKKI

Molecule: COC(=O)C[C@@H]1N=C(c2ccc(Cl)cc2)c2c(sc(C(=O)NCCOCCNC(=O)c3sc4c(c3C)C(c3ccc(Cl)cc3)=N[C@@H](CC(=O)OC)c3nnc(C)n3-4)c2C)-n2c(C)nnc21 [(2+2)-PEG1, Dimethyl 2,2′-((6S,6′S)-(((oxybis(ethane-2,1-diyl))bis(azanediyl))bis(carbonyl))bis(4-(4-chlorophenyl)-3,9-dimethyl-6H-thieno[3,2-f][1,2,4]triazolo[4,3-a][1,4]diazepine-2,6-diyl))diacetate]
- cellular activity (in words) (NMC797 and MV4; 11 cells; 11, compared with JQ1): not properly reflected in cellular activity
- cellular activity (in words) (NMC797 and MV4; 11 cells; 11, compared with JQ1, listed as (2+2) homodimer): did not translate into cellular activity
- IC50 (BRD4(1) [1]; AlphaScreen, BRD4(1)): 1.17 nM
- fold increase in biochemical potency / inhibitory activity (BRD4(1) [1]; BRD4(1), relative to monomeric inhibitor): 20 fold

Molecule: COC(=O)C[C@@H]1N=C(c2ccc(Cl)cc2)c2c(sc(C(=O)NCCNC(=O)C[C@@H]3N=C(c4ccc(Cl)cc4)c4c(sc(C)c4C)-n4c(C)nnc43)c2C)-n2c(C)nnc21 [(6+6)-PEG1, Methyl 2-((S)-4-(4-chlorophenyl)-2-((2-(2-((S)-4-(4-chlorophenyl)-2,3,9-trimethyl-6H-thieno[3,2-f][1,2,4]triazolo[4,3-a][1,4]diazepin-6-yl)acetamido)ethyl)carbamoyl)-3,9-dimethyl-6H-thieno[3,2-f][1,2,4]triazolo[4,3-a][1,4]diazepin-6-yl)acetate]
- cellular activity (in words) (NMC797 and MV4; 11 cells; 11, compared with JQ1): did not show improved activity
- cellular activity (in words) (NMC797 and MV4; 11 cells; 11, compared with JQ1, listed as (6+6) homodimer): did not increase biochemical or cellular activity
- biochemical activity (in words) (BRD4(1) [1]): did not show improved activity
- biochemical activity (in words) (BRD4(1) [1]; listed as (6+6) homodimer): did not increase biochemical or cellular activity

Molecule: COC(=O)C[C@@H]1N=C(c2ccc(Cl)cc2)c2c(sc(C(=O)NCCNC(=O)C[C@@H]3N=C(c4ccc(Cl)cc4)c4c(sc(C)c4C)-n4c(C)nnc43)c2C)-n2c(C)nnc21 [(6S+2S)-PEG0, Methyl 2-((S)-4-(4-chlorophenyl)-2-((2-(2-((S)-4-(4-chlorophenyl)-2,3,9-trimethyl-6H-thieno[3,2-f][1,2,4]triazolo[4,3-a][1,4]diazepin-6-yl)acetamido)ethyl)carbamoyl)-3,9-dimethyl-6H-thieno[3,2-f][1,2,4]triazolo[4,3-a][1,4]diazepin-6-yl)acetate]
- PK properties (in words) [2]: comparable PK properties to MT1

Molecule: COC(=O)C[C@@H]1N=C(c2ccc(Cl)cc2)c2c(sc(C(=O)NCCOCCNC(=O)C[C@@H]3N=C(c4ccc(Cl)cc4)c4c(sc(C)c4C)-n4c(C)nnc43)c2C)-n2c(C)nnc21 [(6S+2S)-PEG1, Methyl 2-((S)-4-(4-chlorophenyl)-2-((2-(2-(2-((S)-4-(4-chlorophenyl)-2,3,9-trimethyl-6H-thieno[3,2-f][1,2,4]triazolo[4,3-a][1,4]diazepin-6-yl)acetamido)ethoxy)ethyl)carbamoyl)-3,9-dimethyl-6H-thieno[3,2-f][1,2,4]triazolo[4,3-a][1,4]diazepin-6-yl)acetate]
- cellular activity (in words) (NMC797 and MV4; 11 cells; 11, compared with JQ1): single-digit to sub-nanomolar activity
- Kd (CBP): 2500 nM
- Kd (EP300): 5000 nM
- Kd (WDR9(2)): 9900 nM
- time of maximum effect on MYC (MYC; 10 nM): 2 h
- lowest concentration with MYC downregulation (MYC; within two hours): 10 nM
- time points of HEXIM1 upregulation (HEXIM1): 4 to 24 h
- effect on BRD4 protein stability (BRD4): No effect on protein stability
- displacement of phage (in words) (BRD4(2)): picomolar displacement
- displacement of phage (in words) (BRD4(full)): picomolar displacement
- displacement of phage (in words) (BRD4(1,2)): picomolar displacement
- displacement of phage (in words) (BRD4(1) [3]): picomolar displacement
- biochemical activity (in words) (BRD4(1) [1]): single-digit to sub-nanomolar activity

Molecule: COc1cc2c(cc1-c1c(C)noc1C)ncc1[nH]c(=O)n([C@H](C)c3ccccn3)c12 [I-BET151, reference compound]
- cellular activity (in words) (NMC797 and MV4; 11 cells; 11, compared with JQ1): comparable performance to JQ1
- biochemical activity (in words) (BRD4(1) [1]): comparable performance to JQ1

Molecule: Cc1sc2c(c1C)C(c1ccc(Cl)cc1)=N[C@@H](CC(=O)OC(C)(C)C)c1nnc(C)n1-2 [JQ1, reference compound]
- IC50 [4]: 69 nM

Molecule: Methyl 2-((S)-4-(4-chlorophenyl)-2-((2-(2-((S)-4-(4-chlorophenyl)-2,3,9-trimethyl-6H-thieno[3,2-f][1,2,4]triazolo[4,3-a][1,4]diazepin-6-yl)acetamido)ethyl)carbamoyl)-3,9-dimethyl-6H-thieno[3,2-f][1,2,4]triazolo[4,3-a][1,4]diazepin-6-yl)acetate [MT1]
- cellular activity (in words) (NMC797 and MV4; 11 cells; 11, compared with JQ1): translated well in cellular activities
- PK properties (in words) [2]: improved PK properties
- exposure in vivo (in words) [2]: highly prolonged exposure in vivo
- inhibition of radioligand agonist binding (neurokinin NK2 receptor): only partial inhibition of binding
- dimerization by SEC (wild-type BRD4(1,2)): absence of dimerization
- dimerization by SEC (BRD4(1,2^MUT) (N433A)): Complete dimerization
- dimerization by SEC (BRD4(1^MUT,2) (N140A)): partial dimerization
- concentrations needed for stabilization, compared with JQ1 (BRD2, 3 and 4): lower concentrations
- thermal stabilization of BET proteins (BRD2, 3 and 4; 48.5° C. heat shock): stabilized BRD2, 3 and 4 in a concentration dependent manner
- apoptosis by caspase-3 and PARP cleavage (MV4; 11 cells): Significant apoptosis
- body weight after drug withdrawal [5]: recovered body weight after drug was withdrawn
- disease monitored by bioluminescence ([5]; compared to JQ1): significantly reduced
- overall survival ([5]; compared to vehicle or JQ1): significantly increased overall survival
- mice sacrificed due to emaciation from drug toxicity ([5]; of 11 mice): two
- off-target effects on receptors and ion channels [6]: limited activity; also recorded: few off-target effects
- leukemic burden by bioluminescence imaging ([7]; half an equivalence (22.1 μmol/kg), 14 days, compared to vehicle or JQ1): significantly reduced leukemic burden
- mCherry+ leukemic burden in bone marrow by FACS ([7]; post-mortem, MT1 at 22.1): significantly decreased
